This assay concerns the target recombinant human TYRO3 (Homo sapiens (Human), UniProt Q06418). Put plainly: TYRO3 enzymatic assay (radiometric [32P]-ATP, Poly(Glu,Tyr) substrate). Type of assay: biochemical. The conditions noted are these: recombinant human TYRO3, [32P]-ATP. As for the experimental part:
Poly(Glu, Tyr) sodium salt (Glu:Tyr (4:1), quality level 200, molecular weight 5,000-20,000, obtained from Sigma Aldrich, catalogue #P7244, assay concentration 0.20 mg/mL) and recombinant human TYRO3 (obtained from ThermoFisher Scientific, catalogue #PV3828, assay concentration 2 nM) were mixed in assay buffer (20 mM Hepes pH 7.5, 10 mM MgCl2, 1 mM EGTA, 0.02% Brij35, 0.02 mg/ml BSA, 0.1 mM Na3VO4, 2 mM DTT, 1% DMSO, with added MnCl2 at a final concentration of 2 mM). Compounds of interest (in DMSO, serial 3-fold dilution from 10 μM to 0.5 nM) or control (1% DMSO) were dispensed into the kinase reaction mixture by Acoustic technology (Echo550; nanoliter range). After incubation at room temperature for 20 minutes, the kinase reaction was initiated by addition of [^32P]-ATP (Specific activity 10 μCi/μl) and the mixture was incubated at room temperature for 2 hours. The reaction was then stopped by spotting the reaction mixture on strips of phosphocellulose P81 paper. Following washing, the radioactivity of the P81 paper was measured and kinase activity data were expressed as the percent remaining kinase activity in test samples compared to vehicle (dimethyl sulfoxide) reactions. IC50 values and curve fits were obtained using Prism (GraphPad Software).
Sequence of recombinant human TYRO3 (Q06418 41-890): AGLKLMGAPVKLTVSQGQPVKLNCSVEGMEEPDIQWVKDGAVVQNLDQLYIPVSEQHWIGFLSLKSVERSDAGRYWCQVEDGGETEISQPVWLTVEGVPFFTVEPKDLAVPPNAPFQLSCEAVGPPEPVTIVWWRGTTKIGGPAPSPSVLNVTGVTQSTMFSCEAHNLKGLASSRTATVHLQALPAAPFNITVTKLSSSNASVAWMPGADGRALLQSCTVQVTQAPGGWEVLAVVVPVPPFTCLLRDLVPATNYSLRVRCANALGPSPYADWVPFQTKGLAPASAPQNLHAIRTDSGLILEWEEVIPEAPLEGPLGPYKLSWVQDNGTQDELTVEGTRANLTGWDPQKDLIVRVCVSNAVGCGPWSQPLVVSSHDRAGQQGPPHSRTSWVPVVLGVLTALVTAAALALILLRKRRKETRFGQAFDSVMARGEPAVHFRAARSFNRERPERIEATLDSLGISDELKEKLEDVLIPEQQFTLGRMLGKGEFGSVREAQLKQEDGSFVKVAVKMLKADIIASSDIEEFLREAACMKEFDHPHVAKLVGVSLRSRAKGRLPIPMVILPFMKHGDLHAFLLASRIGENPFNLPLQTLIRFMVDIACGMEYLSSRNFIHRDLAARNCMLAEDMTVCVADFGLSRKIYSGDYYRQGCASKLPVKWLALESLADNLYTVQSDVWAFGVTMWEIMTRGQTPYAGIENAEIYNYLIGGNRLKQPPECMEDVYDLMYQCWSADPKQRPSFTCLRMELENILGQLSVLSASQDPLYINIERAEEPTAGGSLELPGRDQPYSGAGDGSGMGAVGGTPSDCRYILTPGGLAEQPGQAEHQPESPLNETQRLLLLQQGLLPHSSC
In the case of `CC(C)Oc1ccc(-c2c[nH]c3ncc(-c4ccc(CN5CCCC(O)C5)cc4)cc23)cc1C#N` (stereo not shown) [compound 19, 5-(5-(4-((3-hydroxypiperidin-1-yl)methyl)phenyl)-1H-pyrrolo[2,3-b]pyridin-3-yl)-2-isopropoxybenzonitrile], the IC50 was in the range of 51 to 150 nM.

Take `Cc1ccc(-c2c[nH]c3ncc(-c4ccc(CN5CCCC(O)C5)cc4)cc23)cn1` (stereo not shown) [compound 20, 1-(4-(3-(6-methylpyridin-3-yl)-1H-pyrrolo[2,3-b]pyridin-5-yl)benzyl)piperidin-3-ol]: the IC50 fell in the range of 51 to 150 nM. In the case of `OC1CCCN(Cc2ccc(-c3cnc4[nH]cc(-c5ccc(F)nc5)c4c3)cc2)C1` (stereo not shown) [compound 21, 1-(4-(3-(6-fluoropyridin-3-yl)-1H-pyrrolo[2,3-b]pyridin-5-yl)benzyl)piperidin-3-ol] it was 51 to 150 nM; in that of `OC1CCCN(Cc2ccc(-c3cnc4[nH]cc(-c5cncc(F)c5)c4c3)cc2)C1` (stereo not shown) [compound 22, 1-(4-(3-(5-fluoropyridin-3-yl)-1H-pyrrolo[2,3-b]pyridin-5-yl)benzyl)piperidin-3-ol], 51 to 150 nM; in that of `OC1CCCN(Cc2ccc(-c3cnc4[nH]cc(-c5ccc(C(F)(F)F)nc5)c4c3)cc2)C1` (stereo not shown) [compound 24, 1-(4-(3-(6-(trifluoromethyl)pyridin-3-yl)-1H-pyrrolo[2,3-b]pyridin-5-yl)benzyl)piperidin-3-ol], 51 to 150 nM.

Regarding `COc1ccc(-c2c[nH]c3ncc(-c4ccc(CN5CCC(O)CC5)cc4)cc23)cn1` [compound 28, 1-(4-(3-(6-methoxypyridin-3-yl)-1H-pyrrolo[2,3-b]pyridin-5-yl)benzyl)piperidin-4-ol], the IC50 is 151 to 500 nM. Take `COc1ccc(-c2c[nH]c3ncc(-c4ccc(CN5CCC(O)C5)cc4)cc23)cn1` (stereo not shown) [compound 29, 1-(4-(3-(6-methoxypyridin-3-yl)-1H-pyrrolo[2,3-b]pyridin-5-yl)benzyl)pyrrolidin-3-ol]: the IC50 was in the range of 51 to 150 nM. With `COc1ccc(-c2c[nH]c3ncc(-c4ccc(CN5CCCC(C)(O)C5)cc4)cc23)cn1` (stereo not shown) [compound 30, 1-(4-(3-(6-methoxypyridin-3-yl)-1H-pyrrolo[2,3-b]pyridin-5-yl)benzyl)-3-methylpiperidin-3-ol], the IC50 was 51 to 150 nM. Take `COc1ccc(-c2c[nH]c3ncc(-c4ccc(CN5CCCC(CO)C5)cc4)cc23)cn1` (stereo not shown) [compound 32, (1-(4-(3-(6-methoxypyridin-3-yl)-1H-pyrrolo[2,3-b]pyridin-5-yl)benzyl)piperidin-3-yl)methanol]: the IC50 lay within 51 to 150 nM. In the case of `COc1ccc(-c2c[nH]c3ncc(-c4ccc(CN5CCC(OC)CC5)cc4)cc23)cn1` [compound 34, 5-(4-((4-methoxypiperidin-1-yl)methyl)phenyl)-3-(6-methoxypyridin-3-yl)-1H-pyrrolo[2,3-b]pyridine], the IC50 was in the range of 51 to 150 nM.

Consider `COc1ccc(-c2c[nH]c3ncc(-c4ccc(CN5CC(OC)C5)cc4)cc23)cn1` [compound 35, 5-(4-((3-methoxyazetidin-1-yl)methyl)phenyl)-3-(6-methoxypyridin-3-yl)-1H-pyrrolo[2,3-b]pyridine], for which the IC50 fell in the range of 51 to 150 nM.

In the case of `CCOC1CN(Cc2ccc(-c3cnc4[nH]cc(-c5ccc(OC)nc5)c4c3)cc2)C1` [compound 36, 5-(4-((3-ethoxyazetidin-1-yl)methyl)phenyl)-3-(6-methoxypyridin-3-yl)-1H-pyrrolo[2,3-b]pyridine], the IC50 was 151 to 500 nM. As to `COc1ccc(-c2c[nH]c3ncc(-c4ccc(CN5CCCC(F)C5)cc4)cc23)cn1` (stereo not shown) [compound 40, 5-(4-((3-fluoropiperidin-1-yl)methyl)phenyl)-3-(6-methoxypyridin-3-yl)-1H-pyrrolo[2,3-b]pyridine], the IC50 was in the range of 151 to 500 nM. `COc1ccc(-c2c[nH]c3ncc(-c4ccc(CN5CCC6(CC5)CN(C)C6)cc4)cc23)cn1` [compound 42, 7-(4-(3-(6-methoxypyridin-3-yl)-1H-pyrrolo[2,3-b]pyridin-5-yl)benzyl)-2-methyl-2,7-diazaspiro[3.5]nonane]: the 50% inhibitory concentration (IC50) was in the range of 151 to 500 nM. Under `OCc1ccc(-c2c[nH]c3ncc(-c4ccc(CN5CCCC(O)C5)cc4)cc23)cn1` (stereo not shown) [compound 43, 1-(4-(3-(6-(hydroxymethyl)pyridin-3-yl)-1H-pyrrolo[2,3-b]pyridin-5-yl)benzyl)piperidin-3-ol] stands 51 to 150 nM. Regarding `OC1CCCN(Cc2ccc(-c3cnc4[nH]c(Cl)c(-c5cccc(F)c5)c4c3)cc2)C1` (stereo not shown) [compound 54, 1-(4-(2-chloro-3-(3-fluorophenyl)-1H-pyrrolo[2,3-b]pyridin-5-yl)benzyl)piperidin-3-ol], the IC50 lay in the range of 51 to 150 nM. Take `OC1CCCN(Cc2ccc(-c3cnc4[nH]c(Cl)c(-c5cccc(C(F)F)c5)c4c3)cc2)C1` (stereo not shown) [compound 55, 1-(4-(2-chloro-3-(3-(difluoromethyl)phenyl)-1H-pyrrolo[2,3-b]pyridin-5-yl)benzyl)piperidin-3-ol]: the half-maximal inhibitory concentration (IC50) lay in the range of 151 to 500 nM. Regarding `COc1ccc(-c2c(C)[nH]c3ncc(-c4ccc(CN5CCCC(O)C5)cc4)cc23)cn1` (stereo not shown) [compound 62, 1-(4-(3-(6-methoxypyridin-3-yl)-2-methyl-1H-pyrrolo[2,3-b]pyridin-5-yl)benzyl)piperidin-3-ol], the IC50 is 51 to 150 nM.

In the case of `COCc1[nH]c2ncc(-c3ccc(CN4CCCC(O)C4)cc3)cc2c1-c1ccc(F)nc1` (stereo not shown) [compound 64, 1-(4-(3-(6-fluoropyridin-3-yl)-2-(methoxymethyl)-1H-pyrrolo[2,3-b]pyridin-5-yl)benzyl)piperidin-3-ol], the concentration for half-maximal inhibition (IC50) was 51 to 150 nM.

With `OC1CCCN(Cc2ccc(-c3cnc4[nH]c(C(F)F)c(-c5cccc(F)c5)c4c3)cc2)C1` (stereo not shown) [compound 68, 1-(4-(2-(difluoromethyl)-3-(3-fluorophenyl)-1H-pyrrolo[2,3-b]pyridin-5-yl)benzyl)piperidin-3-ol], the IC50 was 51 to 150 nM. As for `COc1ccc(-c2c[nH]c3ncc(-c4ccc(CN5CCCC(OC(C)=O)C5)cc4)cc23)cn1` (stereo not shown) [compound 69, 1-(4-(3-(6-methoxypyridin-3-yl)-1H-pyrrolo[2,3-b]pyridin-5-yl)benzyl)piperidin-3-yl acetate], the IC50 lay in the range of 151 to 500 nM.

Consider `COCC1CCCN(Cc2ccc(-c3cnc4[nH]cc(-c5ccc(OC)nc5)c4c3)cc2)C1` (stereo not shown) [compound 70, 5-(4-((3-(methoxymethyl)piperidin-1-yl)methyl)phenyl)-3-(6-methoxypyridin-3-yl)-1H-pyrrolo[2,3-b]pyridine], for which the IC50 was in the range of 51 to 150 nM. In the case of `COc1ccc(-c2c[nH]c3ncc(-c4ccc(CN5CCC(C)(O)CC5)cc4)cc23)cn1` [compound 71, 1-(4-(3-(6-methoxypyridin-3-yl)-1H-pyrrolo[2,3-b]pyridin-5-yl)benzyl)-4-methylpiperidin-4-ol] it was 51 to 150 nM; in that of `CNC1CCN(Cc2ccc(-c3cnc4[nH]cc(-c5ccc(OC)nc5)c4c3)cc2)CC1` [compound 73], 151 to 500 nM; in that of `COc1ccc(-c2c[nH]c3ncc(-c4ccc(CN5CCC(N(C)C)CC5)cc4)cc23)cn1` [compound 74, 1-(4-(3-(6-methoxypyridin-3-yl)-1H-pyrrolo[2,3-b]pyridin-5-yl)benzyl)-N,N-dimethylpiperidin-4-amine], 151 to 500 nM. In the case of `CC1(O)CCN(c2ccc(-c3cnc4[nH]cc(-c5ccc6[nH]ccc6c5)c4c3)cc2)CC1` [compound 77, 1-(4-(3-(1H-indol-5-yl)-1H-pyrrolo[2,3-b]pyridin-5-yl)phenyl)-4-methylpiperidin-4-ol], the IC50 is 151 to 500 nM. In the case of `CCN1CCc2cc(-c3c[nH]c4ncc(-c5ccc(CN6CCCC(O)C6)cc5)cc34)ccc2C1` (stereo not shown) [compound 81, 1-(4-(3-(2-ethyl-1,2,3,4-tetrahydroisoquinolin-6-yl)-1H-pyrrolo[2,3-b]pyridin-5-yl)benzyl)piperidin-3-ol] it was 51 to 150 nM.

`CN1CCc2cc(-c3c[nH]c4ncc(-c5ccc(CN6CCCC(CO)C6)cc5)cc34)ccc2C1` (stereo not shown) [compound 82, (1-(4-(3-(2-methyl-1,2,3,4-tetrahydroisoquinolin-6-yl)-1H-pyrrolo[2,3-b]pyridin-5-yl)benzyl)piperidin-3-yl)methanol]: the IC50 fell in the range of 51 to 150 nM.

Broadly, the IC50 is the concentration that inhibits the measured activity by half.

The values above are taken from patent US20240425499A1, “TYRO3 INHIBITORS” (HALIA THERAPEUTICS, INC., priority 2021, published 2024).
